{"source": "ChEMBL document CHEMBL3044789", "about": "“Comparing weed and crop seedling response to pre-emergence pendimethalin application in Corchorus olitorius and Abelmoschus esculentus” (Crop Prot, 2006)", "key": {"Euphorbia heterophylla [1]": {"system": "Euphorbia heterophylla", "assay": "Herbicidal activity against Euphorbia heterophylla in Corchorus olitorius plots assessed as weed cover at 1.32 kg a.i/ha after 4 weeks (reference value: 20.1+/- 0.57 %)", "assay_type": "functional"}, "Euphorbia heterophylla [2]": {"system": "Euphorbia heterophylla", "assay": "Herbicidal activity against Euphorbia heterophylla in Corchorus olitorius plots assessed as weed cover at 1.32 kg a.i/ha after 2 weeks (reference value: 81.7 +/- 0.43 %)", "assay_type": "functional"}, "Chromolaena odorata": {"system": "Chromolaena odorata", "assay": "Herbicidal activity against Chromolaena odorata in Corchorus olitorius plots assessed as weed cover at 1.32 kg a.i/ha after 2 weeks (reference value: 81.7 +/- 0.43 %)", "assay_type": "functional"}, "Corchorus olitorius [3]": {"system": "Corchorus olitorius", "assay": "Phytotoxicity in Corchorus olitorius assessed as root length at 0.99 kg a.i/ha applied as solution after 7 weeks (reference value: 14.3 +/- 1.06 mm)", "assay_type": "organism-based", "conditions": "in vivo, other, 1176 h"}, "Corchorus olitorius [4]": {"system": "Corchorus olitorius", "assay": "Phytotoxicity in Corchorus olitorius assessed as seedling emergence at 0.33 kg a.i/ha treated to soil after 7 weeks (reference value: 95 +/- 0.05 %)", "assay_type": "organism-based", "conditions": "in vivo, other, 1176 h"}, "Talinum fruticosum [5]": {"system": "Talinum fruticosum", "assay": "Herbicidal activity against Talinum fruticosum in Corchorus olitorius plots assessed as weed cover at 0.99 kg a.i/ha after 2 weeks (reference value: 81.7 +/- 0.43 %)", "assay_type": "functional"}, "Synedrella nodiflora [6]": {"system": "Synedrella nodiflora", "assay": "Herbicidal activity against Synedrella nodiflora in Corchorus olitorius plots assessed as major weed growth at 0.99 kg a.i/ha after 2 weeks", "assay_type": "functional"}, "Abelmoschus esculentus [7]": {"system": "Abelmoschus esculentus", "assay": "Phytotoxicity in Abelmoschus esculentus assessed as root length at 0.33 kg a.i/ha treated to soil after 7 weeks (reference value: 2.9 +/- 0.45 mm)", "assay_type": "organism-based", "conditions": "in vivo, other, 1176 h"}, "Synedrella nodiflora [8]": {"system": "Synedrella nodiflora", "assay": "Herbicidal activity against Synedrella nodiflora in Corchorus olitorius plots assessed as minor weed growth at 1.32 kg a.i/ha after 2 weeks", "assay_type": "functional"}, "Synedrella nodiflora [9]": {"system": "Synedrella nodiflora", "assay": "Herbicidal activity against Synedrella nodiflora in Corchorus olitorius plots assessed as weed cover at 0.66 kg a.i/ha after 4 weeks (reference value: 20.1+/- 0.57 %)", "assay_type": "functional"}, "Talinum fruticosum [10]": {"system": "Talinum fruticosum", "assay": "Herbicidal activity against Talinum fruticosum in Corchorus olitorius plots assessed as weed cover at 0.99 kg a.i/ha after 7 weeks (reference value: 1.7 +/- 0.56 %)", "assay_type": "functional"}, "Abelmoschus esculentus [11]": {"system": "Abelmoschus esculentus", "assay": "Phytotoxicity in Abelmoschus esculentus assessed as shoot length at 0.33 kg a.i/ha applied as solution after 7 weeks (reference value: 28.7 +/- 0.34 mm)", "assay_type": "organism-based", "conditions": "in vivo, other, 1176 h"}, "Euphorbia heterophylla [12]": {"system": "Euphorbia heterophylla", "assay": "Herbicidal activity against Euphorbia heterophylla in Corchorus olitorius plots assessed as weed cover at 0.33 kg a.i/ha after 4 weeks (reference value: 20.1+/- 0.57 %)", "assay_type": "functional"}, "Calopogonium mucunoides [13]": {"system": "Calopogonium mucunoides", "assay": "Herbicidal activity against Calopogonium mucunoides in Corchorus olitorius plots assessed as weed cover at 1.32 kg a.i/ha after 4 weeks (reference value: 20.1+/- 0.57 %)", "assay_type": "functional"}, "Corchorus olitorius [14]": {"system": "Corchorus olitorius", "assay": "Phytotoxicity in Corchorus olitorius assessed as seedling injury at 1.32 kg a.i/ha applied as solution after 7 weeks relative to control", "assay_type": "organism-based", "conditions": "in vivo, other, 1176 h"}, "Commelina diffusa [15]": {"system": "Commelina diffusa", "assay": "Herbicidal activity against Commelina diffusa in Abelmoschus esculentus plots assessed as weed recovery at 0.66 kg a.i/ha after 2 weeks (reference value: 60.1 +/- 0.46 %)", "assay_type": "functional"}, "Calopogonium mucunoides [16]": {"system": "Calopogonium mucunoides", "assay": "Herbicidal activity against Calopogonium mucunoides in Corchorus olitorius plots assessed as weed cover at 0.99 kg a.i/ha after 7 weeks (reference value: 1.7 +/- 0.56 %)", "assay_type": "functional"}, "Synedrella nodiflora [17]": {"system": "Synedrella nodiflora", "assay": "Herbicidal activity against Synedrella nodiflora in Corchorus olitorius plots assessed as weed cover at 0.33 kg a.i/ha after 2 weeks (reference value: 81.7 +/- 0.43 %)", "assay_type": "functional"}, "Calopogonium mucunoides [18]": {"system": "Calopogonium mucunoides", "assay": "Herbicidal activity against Calopogonium mucunoides in Corchorus olitorius plots assessed as weed recovery at 0.33 kg a.i/ha after 2 weeks (reference value: 78.3 +/- 0.74 %)", "assay_type": "functional"}, "Corchorus olitorius [19]": {"system": "Corchorus olitorius", "assay": "Phytotoxicity in Corchorus olitorius assessed as seed germination at 0.33 kg a.i/ha applied as solution after 7 weeks relative to untreated control", "assay_type": "organism-based", "conditions": "in vivo, other, 1176 h"}, "Euphorbia heterophylla [20]": {"system": "Euphorbia heterophylla", "assay": "Herbicidal activity against Euphorbia heterophylla in Corchorus olitorius plots assessed as weed cover at 0.33 kg a.i/ha after 7 weeks (reference value: 1.7 +/- 0.56 %)", "assay_type": "functional"}, "Ageratum conyzoides [21]": {"system": "Ageratum conyzoides", "assay": "Herbicidal activity against Ageratum conyzoides in Abelmoschus esculentus plots assessed as minor weed growth at 1.32 kg a.i/ha after 2 weeks", "assay_type": "functional"}, "Euphorbia heterophylla [22]": {"system": "Euphorbia heterophylla", "assay": "Herbicidal activity against Euphorbia heterophylla in Abelmoschus esculentus plots assessed as weed cover at 0.33 kg a.i/ha after 2 weeks (reference value: 63.5 +/- 0.29 %)", "assay_type": "functional"}, "Euphorbia heterophylla [23]": {"system": "Euphorbia heterophylla", "assay": "Herbicidal activity against Euphorbia heterophylla in Abelmoschus esculentus plots assessed as weed cover at 0.66 kg a.i/ha after 7 weeks (reference value: 14.7 +/- 0.46 %)", "assay_type": "functional"}, "Ageratum conyzoides [24]": {"system": "Ageratum conyzoides", "assay": "Herbicidal activity against Ageratum conyzoides in Corchorus olitorius plots assessed as minor weed growth at 1.32 kg a.i/ha after 2 weeks", "assay_type": "functional"}, "[25]": {"system": "Rottboellia cochinchinensis", "assay": "Herbicidal activity against Rottboellia cochinchinensis in Corchorus olitorius plots assessed as weed cover at 0.33 kg a.i/ha after 2 weeks (reference value: 81.7 +/- 0.43 %)", "assay_type": "functional"}, "Synedrella nodiflora [26]": {"system": "Synedrella nodiflora", "assay": "Herbicidal activity against Synedrella nodiflora in Abelmoschus esculentus plots assessed as weed cover at 0.99 kg a.i/ha after 2 weeks (reference value: 63.5 +/- 0.29 %)", "assay_type": "functional"}, "Commelina diffusa [27]": {"system": "Commelina diffusa", "assay": "Herbicidal activity against Commelina diffusa in Abelmoschus esculentus plots assessed as weed cover at 0.66 kg a.i/ha after 4 weeks (reference value: 22.6 +/- 0.49 %)", "assay_type": "functional"}, "Corchorus olitorius [28]": {"system": "Corchorus olitorius", "assay": "Phytotoxicity in Corchorus olitorius assessed as root length at 1.32 kg a.i/ha applied as solution after 7 weeks (reference value: 14.3 +/- 1.06 mm)", "assay_type": "organism-based", "conditions": "in vivo, other, 1176 h"}, "Abelmoschus esculentus [29]": {"system": "Abelmoschus esculentus", "assay": "Phytotoxicity in Abelmoschus esculentus assessed as shoot length at 0.99 kg a.i/ha treated to soil after 7 weeks (reference value: 8.5 +/- 0.34 mm)", "assay_type": "organism-based", "conditions": "in vivo, other, 1176 h"}, "Calopogonium mucunoides [30]": {"system": "Calopogonium mucunoides", "assay": "Herbicidal activity against Calopogonium mucunoides in Abelmoschus esculentus plots assessed as weed cover at 0.33 kg a.i/ha after 7 weeks (reference value: 14.7 +/- 0.46 %)", "assay_type": "functional"}, "Abelmoschus esculentus [31]": {"system": "Abelmoschus esculentus", "assay": "Phytotoxicity in Abelmoschus esculentus assessed as seedling emergence at 0.33 kg a.i/ha treated to soil after 7 weeks (reference value: 95 +/- 0.05 %)", "assay_type": "organism-based", "conditions": "in vivo, other, 1176 h"}, "Ageratum conyzoides [32]": {"system": "Ageratum conyzoides", "assay": "Herbicidal activity against Ageratum conyzoides in Corchorus olitorius plots assessed as weed cover at 1.32 kg a.i/ha after 7 weeks (reference value: 1.7 +/- 0.56 %)", "assay_type": "functional"}, "Asteraceae": {"system": "Asteraceae", "assay": "Herbicidal activity against Aspilia africana in Corchorus olitorius plots assessed as weed cover at 0.66 kg a.i/ha after 4 weeks (reference value: 20.1+/- 0.57 %)", "assay_type": "functional"}, "Synedrella nodiflora [33]": {"system": "Synedrella nodiflora", "assay": "Herbicidal activity against Synedrella nodiflora in Corchorus olitorius plots assessed as weed cover at 0.33 kg a.i/ha after 4 weeks (reference value: 20.1+/- 0.57 %)", "assay_type": "functional"}, "Abelmoschus esculentus [34]": {"system": "Abelmoschus esculentus", "assay": "Phytotoxicity in Abelmoschus esculentus assessed as root length at 1.32 kg a.i/ha applied as solution after 7 weeks (reference value: 23 +/- 0.34 mm)", "assay_type": "organism-based", "conditions": "in vivo, other, 1176 h"}}}
{"smiles": "CCC(CC)Nc1c([N+](=O)[O-])cc(C)c(C)c1[N+](=O)[O-]", "note": "[PENDIMETHALIN]", "values": [{"measurement": "Activity", "setting": "Euphorbia heterophylla [1]", "result": 33.3, "unit": "%"}, {"measurement": "Activity", "setting": "Euphorbia heterophylla [2]", "result": 41.7, "unit": "%"}, {"measurement": "Activity", "setting": "Chromolaena odorata", "result": 41.7, "unit": "%"}, {"measurement": "Activity", "setting": "Corchorus olitorius [3]", "result": 2.5, "unit": "mm"}, {"measurement": "Activity", "setting": "Corchorus olitorius [4]", "result": 85, "unit": "%"}, {"measurement": "Activity", "setting": "Talinum fruticosum [5]", "result": 51.7, "unit": "%"}, {"measurement": "Activity", "setting": "Synedrella nodiflora [6]", "result": "31 /m2"}, {"measurement": "Activity", "setting": "Abelmoschus esculentus [7]", "result": 3, "unit": "mm"}, {"measurement": "Activity", "setting": "Synedrella nodiflora [8]", "result": "1 /m2"}, {"measurement": "Activity", "setting": "Synedrella nodiflora [9]", "result": 63.3, "unit": "%"}, {"measurement": "Activity", "setting": "Talinum fruticosum [10]", "result": 95, "unit": "%"}, {"measurement": "Activity", "setting": "Abelmoschus esculentus [11]", "result": 14.5, "unit": "mm"}, {"measurement": "Activity", "setting": "Euphorbia heterophylla [12]", "result": 73.3, "unit": "%"}, {"measurement": "Activity", "setting": "Calopogonium mucunoides [13]", "result": 33.3, "unit": "%"}, {"measurement": "Activity", "setting": "Corchorus olitorius [14]", "result": 66.7, "unit": "%"}, {"measurement": "Activity", "setting": "Commelina diffusa [15]", "result": 47.9, "unit": "%"}, {"measurement": "Activity", "setting": "Calopogonium mucunoides [16]", "result": 95, "unit": "%"}, {"measurement": "Activity", "setting": "Synedrella nodiflora [17]", "result": 63.3, "unit": "%"}, {"measurement": "Activity", "setting": "Calopogonium mucunoides [18]", "result": 31.7, "unit": "%"}, {"measurement": "Activity", "setting": "Corchorus olitorius [19]", "result": 88.7, "unit": "%"}, {"measurement": "Activity", "setting": "Euphorbia heterophylla [20]", "result": 100, "unit": "%"}, {"measurement": "Activity", "setting": "Ageratum conyzoides [21]", "result": "1 /m2"}, {"measurement": "Activity", "setting": "Euphorbia heterophylla [22]", "result": 56.8, "unit": "%"}, {"measurement": "Activity", "setting": "Euphorbia heterophylla [23]", "result": 90, "unit": "%"}, {"measurement": "Activity", "setting": "Ageratum conyzoides [24]", "result": "1 /m2"}, {"measurement": "Activity", "setting": "[25]", "result": 63.3, "unit": "%"}, {"measurement": "Activity", "setting": "Synedrella nodiflora [26]", "result": 47.9, "unit": "%"}, {"measurement": "Activity", "setting": "Commelina diffusa [27]", "result": 47.9, "unit": "%"}, {"measurement": "Activity", "setting": "Corchorus olitorius [28]", "result": 2.4, "unit": "mm"}, {"measurement": "Activity", "setting": "Abelmoschus esculentus [29]", "result": 5.6, "unit": "mm"}, {"measurement": "Activity", "setting": "Calopogonium mucunoides [30]", "result": 90, "unit": "%"}, {"measurement": "Activity", "setting": "Abelmoschus esculentus [31]", "result": 85, "unit": "%"}, {"measurement": "Activity", "setting": "Ageratum conyzoides [32]", "result": 95, "unit": "%"}, {"measurement": "Activity", "setting": "Asteraceae", "result": 63.3, "unit": "%"}, {"measurement": "Activity", "setting": "Synedrella nodiflora [33]", "result": 73.3, "unit": "%"}, {"measurement": "Activity", "setting": "Abelmoschus esculentus [34]", "result": 11.5, "unit": "mm"}]}
